Key:
[1] = tested on: acquired perforating dermatosis lesions; experiment: Topical cantharidin treatment of a patient with acquired perforating dermatosis (case example); format: in vivo, human
Description: A person presented a six-month history of pruritic, hyperpigmented papules with central, hyperkeratotic plugs of bilateral lower extremities (FIG. 1). The trunk, head, upper extremities, volar surfaces and mucous membranes were spared. Their past medical history was significant for chronic renal failure treated for the past four years with peritoneal dialysis, a 30-year history of insulin-dependent diabetes mellitus, hypercholesterolemia, hypertension, coronary artery bypass, hypothyroidism, and hyperparathyroidism. There was no family history of similar skin lesions. […] The clinical and histopathologic features supported the diagnosis of an acquired perforating disorder associated with renal disease.
Over the next six months, the patient was treated with intralesional triamcinolone at 10 mg/cc, topical clobetasol, diflorasone, tacrolimus, tazarotene and ammonium lactate. They declined narrowband UVB phototherapy. They were also given oral hydroxine and fexofenadine for their pruritus.
While a therapy of fexofenadine […] bid, ammonium lactate 12% cream bid, and tazarotene 0.1% cream qd were continued, cantharidin at 0.7 wt % (Canthacur® Pharmascience Inc., Montreal, Canada) was applied to lesions on the right medial calf. Cantharidin was applied for eight hours under occlusion. The vehicle was a solution containing cantharidin 0.7 wt % in acetone, castor oil, collodion, ethoxyethanol, ethyl cellulose, and polyoxyethylene octyl phenol. “bid” means twice per day. “qd” means once per day.
The film was then occluded using Blenderm® tape, which was kept on for 8 hours before it was washed off. Within 2 days, multiple bullae formed at the sites of cantharidin application (FIG. 2). There was vesicle formation at site of cantharidin application. The patient reported mild pain at these sites for the first 2 days. A week after application, a biopsy of the blistered lesion was taken. […] The blister roofs were then removed by paring them with a 15-blade at the edge of the lesion to find the blister plane and then lifting upwards. […] The lichenified papules and hyperkeratotic cores were no longer present and the leg was smooth.
Pruritus was resolved in the treated lesions. Cantharidin was subsequently applied under Tegaderm® dressing (3M Corp.) occlusion to multiple lesions of both legs. […] In a five-month follow up, the patient reported no pruritus on the treated lesions. Treated lesions were smooth. […] Cantharidin provides symptomatic relief but may not prevent the formation of new lesions.

skin = conditions: general statement in the description; cited from earlier work

C[C@@]12C(=O)OC(=O)[C@]1(C)[C@H]1CC[C@@H]2O1 [cantharidin, Cantharidin]
biopsy of the blistered lesion (histology) ([1]; a week after application of cantharidin 0.7 wt %): focal acantholysis and scattered necrotic keratinocytes
pruritus in the treated lesions ([1]; after cantharidin 0.7 wt % treatment and debridement): resolved
time to formation of multiple bullae at the sites of cantharidin application ([1]; cantharidin 0.7 wt % solution, lesions on right medial calf, 8 hours under occlusion (Blenderm tape)): ≤ 2 days
pain reported by the patient at application sites ([1]; cantharidin 0.7 wt %, 8 hours under occlusion, first 2 days): mild pain
effectiveness of treatment on multiple lesions of both legs ([1]; cantharidin applied under Tegaderm dressing occlusion): effective in most lesions
appearance of treated lesions at follow up ([1]; five-month follow up): smooth
formation of new lesions at follow up ([1]; five-month follow up): A few new lesions formed
pruritus on the treated lesions at follow up ([1]; five-month follow up): no pruritus
time to blister formation after topical treatment (skin): 24 to 48 h
